Values quoted from earlier work, collected in PMC6738130 (OncoTargets and therapy, 2019).

Key:
[1] = driven by mitochondrial inner membrane potential (ΔΨ=140–180 mV)
tumor = conditions: 5 nmol/kg SkQ1 per day in drinking water

Accumulation into the mitochondrial matrix [1] | Structure (SMILES) | Effect on level of ROS and tumor formation (tumor)
several hundred-fold | COC1=C(OC)C(=O)C(CCCCCCCCCC[P+](c2ccccc2)(c2ccccc2)c2ccccc2)=C(C)C1=O [MitoQ, mitoquinone] | –
– | CC1=C(C)C(=O)C(CCCCCCCCCC[P+](c2ccccc2)(c2ccccc2)c2ccccc2)=CC1=O.[Br-] [SkQ1] | reduced the level of ROS prevented the formation of a tumor
